Reference: patent publication US20210371413A1, “POLYCYCLIC AMIDES AS CYTOTOXIC AGENTS” (FEMTOGENIX LIMITED, priority 2018, published 2021)

Assays:
SW48 = experiment: In vitro cell-killing, MTT assay, SW48; assay type: cell-based; details: Homo sapiens, SW48, 72 h, read-out: In vitro cell-killing (IC50), Cytotoxicity (72 hours)
Experimental: Tumor cell lines were maintained in RPMI1640 medium supplemented with 10% heat-inactivated fetal bovine serum, 2 mM L-glutamine and 1 mM sodium pyruvate. 1800 cells per well were seeded in a volume of 180 μl in a 96-well flat bottom polystyrene plate. The cells were allowed to adhere overnight at 37° C. in a CO2 incubator. Ligands were initially formulated in DMSO, and stocks stored at −80° C. They were then further formulated at lox concentration in RPMI1640 medium. 20 ul of diluted samples were added into each treatment well. On each plate, blank wells with no cells, and untreated wells containing cells, were included. Plates were then cultured at 37° C. in a CO2 incubator for 72 hrs. Cytotoxicity was evaluated using a tetrazolium salt-based assay, the MTT assay. After 72 hours, the supernatant was removed from each well and 200 μl of a sterile filtered 500 μg/ml MTT solution in water added to each well. […] The plate was then read on a plate reader at 540 nm, and percentage cell survival calculated as follows: ((mean absorbance treated wells at concentration x−mean absorbance blank wells)+(mean absorbance untreated wells at concentration x−mean absorbance blank wells))×100. Data were plotted as concentration in nM vs. % cell survival in Microsoft Excel, and IC50 values (concentration where cell survival is reduced by a half) were determined from the graph.

[1] = tested on: 5′-[…]-3′ (poly GC) DNA duplex; experiment: FRET DNA melting, poly GC duplex; assay type: binding; details: 5′-AATAGGGGGTCGCCTATT-3′
Experimental: FRET DNA melting studies were undertaken on 15 and 16 using two fluorescently labelled sequences. The sequences (FIG. 1) were designed to represent poly AT and poly GC sequences.
The short duplexes used in this FRET study are relatively unstable in the duplex form with a melting temperature below 30° C. so that, in the absence of ligand, a large part of the melting occurs below the starting temperature of the experiment. However, it can be observed that 15 stabilizes the duplex form, producing increases in melting temperature with ΔTm values of […] for 5′-AAAAAAAGAAAAAATIT-3′ (FIG. 2, top panel), and ˜25° C. (FIG. 2, bottom panel).
Oligonucleotides were obtained from ATDbio (Southampton, UK) in lyophilised form. […]
The reaction mixture was comprised of 4 μL of 250 mM phosphate buffer (final concentration of 50 mM), 4 μL flourophor and 4 μL quencher molecule of the appropriate oligonucleotide for a final concentration of 0.2 μM, 4 μL 5 M sodium chloride (final concentration of 1 M NaCl), and 4 μL of distilled H2O. […] This mixture was analysed without prior annealing.
Fluorescence melting profiles were measured using a Roche LightCycler using a total reaction volume of 20 μL. […] Annealing steps and melting steps were all recorded and changes in fluorescence were measured at 520 nm. […]

REH (ALL) = experiment: In vitro cytotoxicity, MTT assay, REH; assay type: cell-based; details: 72 h, read-out: Cytotoxicity
Experimental: The in vitro cytotoxicity of a selection of compounds were evaluated in a panel of cell lines using the standard MTT assay for a 72 hour incubation period (Table 2). Free payloads produced cytotoxicities in the nanomolar range.
Tumor cell lines were maintained in RPMI1640 medium supplemented with 10% heat-inactivated fetal bovine serum, 2 mM L-glutamine and 1 mM sodium pyruvate. 1800 cells per well were seeded in a volume of 180 μl in a 96-well flat bottom polystyrene plate. The cells were allowed to adhere overnight at 37° C. in a CO2 incubator. Ligands were initially formulated in DMSO, and stocks stored at −80° C. They were then further formulated at lox concentration in RPMI1640 medium. 20 ul of diluted samples were added into each treatment well. On each plate, blank wells with no cells, and untreated wells containing cells, were included. Plates were then cultured at 37° C. in a CO2 incubator for 72 hrs. Cytotoxicity was evaluated using a tetrazolium salt-based assay, the MTT assay. After 72 hours, the supernatant was removed from each well and 200 μl of a sterile filtered 500 μg/ml MTT solution in water added to each well. The plates were then incubated at 37° C. in a CO2 incubator for 4 hrs. The supernatant was then removed and the formazan crystals formed solubilized by adding 150 μl of DMSO to each well. The plate was then read on a plate reader at 540 nm, and percentage cell survival calculated as follows: ((mean absorbance treated wells at concentration x−mean absorbance blank wells)+(mean absorbance untreated wells at concentration x−mean absorbance blank wells))×100. Data were plotted as concentration in nM vs. % cell survival in Microsoft Excel, and IC50 values (concentration where cell survival is reduced by a half) were determined from the graph.

COc1cc2c(cc1OCCCC(=O)Nc1cc(C(=O)Nc3ccc(-c4cc(C(=O)Nc5ccc(N)cc5)n(C)c4)cc3)n(C)c1)NC[C@@H]1CCCCN1C2=O [Compound 16, (S)—N-(4-Aminophenyl)-4-(4-(4-(4-((2-methoxy-12-oxo-5,6,6a,7,8,9,10,12-octahydrobenzo[e]pyrido[1,2-a][1,4]diazepin-3-yl)oxy)butanamido)-1-methyl-1H-pyrrole-2-carboxamido)phenyl)-1-methyl-1H-pyrrole-2-carboxamide]
IC50 (SW48): 0.077 µM | interactivity with the poly-GC sequence (FRET) [1]: little interactivity | IC50 (REH (ALL)): 0.146 µM
